biological target: T1, Low molecular weight phosphotyrosine protein phosphatase (Homo sapiens, UniProt P24666); experiment: LMPTP Primary Screening Protocol
T1 sequence (P24666 whole entry): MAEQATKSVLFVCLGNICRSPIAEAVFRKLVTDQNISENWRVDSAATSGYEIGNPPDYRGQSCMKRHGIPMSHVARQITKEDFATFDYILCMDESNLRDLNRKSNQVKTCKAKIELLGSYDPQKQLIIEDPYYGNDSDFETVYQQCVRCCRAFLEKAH
Procedure: 1. Prepare Reagents as described in section F. Recipe.2. Using LabCyte Echo, transfer 60 nL from 2 mM test compound source plate into assay plate Col. 5-48 (final concentration of test compounds is 20 μM). 60 nL of DMSO should be transferred to col. 1-4 for positive and negative control wells.3. Spin plates at 1000 rpm for 1 minute in centrifuge.4. Using the Beckman Coulter Bioraptr, add 3 μL/well of control buffer to columns 1 and 2.5. Using the Bioraptr, add 3 μL/well of enzyme solution to col. […] Using the Bioraptr, add 3 μL/well of substrate solution to col. 1-48.7. Spin plates at 1000 rpm for 1 minute in centrifuge.8. Incubate plates in the dark at room temperature for 50 minutes.9. Read plates on PerkinElmer Viewlux using a FI protocol.

Row | SMILES | IC50 [µM]
1 | O=C(c1ccc(-c2cc(NCCCC3CCCNC3)c3ccccc3n2)cc1)N1CCCC1 (stereo not given) [4-{4-[(3-piperidylpropyl)amino](2-quinolyl)}phenyl pyrrolidinyl ketone] | 0.802 to 5
2 | c1ccc(-c2cc(NCCN3CCOCC3)c3ccccc3n2)cc1 [(2-morpholin-4-ylethyl)(2-phenyl(4-quinolyl))amine] | 0.802 to 5
3 | CC(C)NC(=O)c1ccc(-c2cc(NCCCC3CCCNC3)c3ccccc3n2)cc1 (stereo not given) [N-(methylethyl)(4-{4-[(3-piperidylpropyl)amino](2-quinolyl)}phenyl)carboxamide] | 0.802 to 5

Further lines, results first:

Row | IC50 [µM] | SMILES
4 | 0.802 to 5 | CCN1CCN(Cc2ccc(NC3CC(c4ccc(OC)cc4)Nc4ccccc43)cc2)CC1 (stereo not given) [US10626094, Example I206]
5 | > 5 | Clc1cccc(Cl)c1-c1cc(NCCCC2CCCNC2)c2ccccc2n1 (stereo not given) [US11220486, Compound I100]
